{"source": "paper PMC11470957", "about": "“Principles of paralog-specific targeted protein degradation engaging the C-degron E3 KLHDC2” (Nature Communications, 2024)", "tested_on": "KLHDC2, KLHDC3, KLHDC10, KLHDC1 E3 ligases", "note": "Entries after “also recorded” stand apart in the source; their conditions may differ."}
{"smiles": "O=C(O)CNC(=O)Cc1csc(-c2ccc3ccccc3c2)n1", "note": "[SJ46411]", "values": [{"measurement": "selectivity towards KLHDC2 over other KLHDC family members", "setting": "inhibition of SELK ubiquitylation", "result": "at least two orders-of-magnitude"}, {"measurement": "inhibition of substrate ubiquitylation by Kelch family E3 ligases other than KLHDC2", "setting": "ligand alone, Fig S5b, c", "result": "does not show substantial effects; also recorded: largely inactive"}]}
